Assay results: US10800792B2, “Inhibitors of Bruton's tyrosine kinase and method of their use” (JANSSEN PHARMACEUTICA NV, priority 2015, dated 2020)

Biological target: unphosphorylated-BTK kinase domain (UP-BTK), GST-tagged human BTK (389-659aa) (Homo sapiens (Human), UniProt Q06187)
Test: BTK kinase Lanthascreen binding assay
Details: unphosphorylated-BTK kinase domain, 50 nM Tracer 236, 60 minutes, pIC50 = negative log of the IC50 in molar; for IC50: read-out: BTK_I_binding pIC50 (converted)
How it was run: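 Compound binding to the unphosphorylated kinase domain was monitored by displacement of a fluorescently labelled tracer in a Lanthascreen format. Potency is given as pIC50, the negative log of the molar IC50.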

Chain of unphosphorylated-BTK kinase domain (UP-BTK), GST-tagged human BTK (389-659aa) (Q06187 389-659): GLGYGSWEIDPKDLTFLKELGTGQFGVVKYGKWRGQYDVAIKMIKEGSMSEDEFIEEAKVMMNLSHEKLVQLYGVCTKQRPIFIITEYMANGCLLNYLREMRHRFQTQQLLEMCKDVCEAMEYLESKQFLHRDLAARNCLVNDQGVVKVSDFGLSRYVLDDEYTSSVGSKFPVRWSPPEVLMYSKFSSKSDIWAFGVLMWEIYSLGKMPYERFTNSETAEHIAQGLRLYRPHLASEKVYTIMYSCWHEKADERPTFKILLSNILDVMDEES

| BTK_I_binding pIC50 | Compound | IC50 [nM] |
| --- | --- | --- |
| 7.3 | CN(C)C/C=C/C(=O)N1CCC[C@@H](NC(=O)c2sc3nccc4c3c2NC(=O)N4c2ccc(Oc3ccccc3)cc2)C1 [Example 373, (R,E)-N-(1-(4-(Dimethylamino)but-2-enoyl)piperidin-3-yl)-4-oxo-5-(4-phenoxyphenyl)-4,5-dihydro-3H-1-thia-3,5,8-triazaacenaphthylene-2-carboxamide] |  |
| 7.0 | Cc1cc(Oc2ccccc2)ccc1N1C(=O)Nc2c(C(=O)N[C@@H]3CCCN(C(=O)/C=C/CS(C)(=O)=O)C3)sc3nccc1c23 [Example 374, (R,E)-5-(2-Methyl-4-phenoxyphenyl)-N-(1-(4-(methylsulfonyl)but-2-enoyl)piperidin-3-yl)-4-oxo-4,5-dihydro-3H-1-thia-3,5,8-triazaacenaphthylene-2-carboxamide] |  |
|  | [2H]c1c([2H])c([2H])c(Oc2ccc(N3C(=O)Nc4c(C(=O)N[C@@H]5CCCN(C(=O)C=C)C5)sc5nccc3c45)c(C)c2)c([2H])c1[2H] [Example 375, (R)—N-(1-Acryloylpiperidin-3-yl)-5-(2-methyl-4-(2,3,4,5,6-pentadeuteriophenoxy)phenyl)-4-oxo-4,5-dihydro-3H-1-thia-3,5,8-triazaacenaphthylene-2-carboxamide] | 12.6 |
|  | [2H]c1c([2H])c([2H])c(Oc2ccc(N3C(=O)Nc4c(C(=O)N[C@@H]5CCN(C(=O)C=C)C5)sc5nccc3c45)c(C)c2)c([2H])c1[2H] [Example 376, (R)—N-(1-Acryloylpyrrolidin-3-yl)-5-(2-methyl-4-(2,3,4,5,6-pentadeuteriophenoxy)phenyl)-4-oxo-4,5-dihydro-3H-1-thia-3,5,8-triazaacenaphthylene-2-carboxamide] | 15.8 |
| 7.5 | CNC/C=C/C(=O)N1CC[C@@H](NC(=O)c2sc3nccc4c3c2NC(=O)N4c2ccc(Oc3ccccc3)cc2C)C1 [Example 377, (R,E)-5-(2-Methyl-4-phenoxyphenyl)-N-(1-(4-(methylamino)but-2-enoyl)pyrrolidin-3-yl)-4-oxo-4,5-dihydro-3H-1-thia-3,5,8-triazaacenaphthylene-2-carboxamide] |  |
|  | [2H]c1c([2H])c([2H])c(Oc2ccc(N3C(=O)Nc4c(C(=O)N[C@@H]5CCCN(C(=O)/C(C#N)=C/C6CC6)C5)sc5nccc3c45)c(C)c2)c([2H])c1[2H] [Example 378, (R,E)-N-(1-(2-Cyano-3-cyclopropylacryloyl)piperidin-3-yl)-5-(2-methyl-4-(2,3,4,5,6-pentadeuteriophenoxy)phenyl)-4-oxo-4,5-dihydro-3H-1-thia-3,5,8-triazaacenaphthylene-2-carboxamide] | 31.6 |
|  | [2H]c1c([2H])c([2H])c(Oc2ccc(N3C(=O)Nc4c(C(=O)N[C@@H]5CCCN(C#N)C5)sc5nccc3c45)c(C)c2)c([2H])c1[2H] [Example 379, (R)—N-(1-Cyanopiperidin-3-yl)-5-(2-methyl-4-(2,3,4,5,6-pentadeuteriophenoxy)phenyl)-4-oxo-4,5-dihydro-3H-1-thia-3,5,8-triazaacenaphthylene-2-carboxamide] | 31.6 |
|  | [2H]c1c([2H])c([2H])c(Oc2ccc(N3C(=O)Nc4c(C(=O)N[C@@H]5CCCN(C([2H])([2H])[2H])C5)sc5nccc3c45)c(C)c2)c([2H])c1[2H] [Example 380, (R)-5-(2-Methyl-4-(2,3,4,5,6-pentadeuteriophenoxy)phenyl)-N-(1-(trideuteriomethyl)piperidin-3-yl)-4-oxo-4,5-dihydro-3H-1-thia-3,5,8-triazaacenaphthylene-2-carboxamide] | 158 |
|  | [2H]c1c([2H])c([2H])c(Oc2ccc(N3C(=O)Nc4c(C(=O)N[C@@H]5CCCN(C)C5)sc5nccc3c45)c(C)c2)c([2H])c1[2H] [Example 381, (R)-5-(2-Methyl-4-(2,3,4,5,6-pentadeuteriophenoxy)phenyl)-N-(1-methylpiperidin-3-yl)-4-oxo-4,5-dihydro-3H-1-thia-3,5,8-triazaacenaphthylene-2-carboxamide] | 79.4 |
| 7.3 | Cc1cc(Oc2ccccc2)ccc1N1C(=O)Nc2c(C(=O)N[C@@H]3CCN(C(=O)/C=C/CN)C3)sc3nccc1c23 [Example 382, (R,E)-N-(1-(4-Aminobut-2-enoyl)pyrrolidin-3-yl)-5-(2-methyl-4-phenoxyphenyl)-4-oxo-4,5-dihydro-3H-1-thia-3,5,8-triazaacenaphthylene-2-carboxamide] |  |
| 7.2 | Cc1cc(Oc2ccccc2)ccc1N1C(=O)Nc2c(C(=O)N[C@@H]3CCCN(C(=O)/C=C/CNS(C)(=O)=O)C3)sc3nccc1c23 [Example 383, (R,E)-5-(2-Methyl-4-phenoxyphenyl)-N-(1-(4-(methylsulfonamido)but-2-enoyl)piperidin-3-yl)-4-oxo-4,5-dihydro-3H-1-thia-3,5,8-triazaacenaphthylene-2-carboxamide] |  |
| 7.1 | Cc1cc(Oc2ccccc2)ccc1N1C(=O)Nc2c(C(=O)N[C@@H]3CCN(C(=O)CN(C)C)C3)sc3nccc1c23 [Example 384, (R)—N-(1-(2-(Dimethylamino)acetyl)pyrrolidin-3-yl)-5-(2-methyl-4-phenoxyphenyl)-4-oxo-4,5-dihydro-3H-1-thia-3,5,8-triazaacenaphthylene-2-carboxamide] |  |
| 7.9 | C/C=C(\C#N)C(=O)N1CCC[C@@H](NC(=O)c2sc3nccc4c3c2NC(=O)N4c2ccc(Oc3ccccc3)cc2C)C1 [Example 385, (R,E)-N-(1-(2-Cyanobut-2-enoyl)piperidin-3-yl)-5-(2-methyl-4-phenoxyphenyl)-4-oxo-4,5-dihydro-3H-1-thia-3,5,8-triazaacenaphthylene-2-carboxamide] |  |
| 6.9 | Cc1cc(Oc2ccccc2)ccc1N1C(=O)Nc2c(C(=O)N[C@@H]3CCCN(C(=O)[C@@H]4CCN4)C3)sc3nccc1c23 [Example 386, N—((R)-1-((S)-Azetidine-2-carbonyl)piperidin-3-yl)-5-(2-methyl-4-phenoxyphenyl)-4-oxo-4,5-dihydro-3H-1-thia-3,5,8-triazaacenaphthylene-2-carboxamide] |  |
| 7.1 | CNC/C=C(\F)C(=O)N1CCC[C@@H](NC(=O)c2sc3nccc4c3c2NC(=O)N4c2ccc(Oc3ccccc3)cc2C)C1 [Example 388, (R,Z)—N-(1-(2-Fluoro-4-(methylamino)but-2-enoyl)piperidin-3-yl)-5-(2-methyl-4-phenoxyphenyl)-4-oxo-4,5-dihydro-3H-1-thia-3,5,8-triazaacenaphthylene-2-carboxamide] |  |
| 7.0 | Cc1cc(Oc2ccccc2)ccc1N1C(=O)Nc2c(C(=O)N[C@@H]3CCCN(C(=O)CN4CCCC4)C3)sc3nccc1c23 [Example 389, (R)-5-(2-Methyl-4-phenoxyphenyl)-4-oxo-N-(1-(2-(pyrrolidin-1-yl)acetyl)piperidin-3-yl)-4,5-dihydro-3H-1-thia-3,5,8-triazaacenaphthylene-2-carboxamide] |  |
| 6.9 | C=CC(=O)N1CCC[C@@H](NCc2sc3nccc4c3c2NC(=O)N4c2ccc(Oc3ccccc3)cc2C)C1 [Example 390, (R)-2-(((1-Acryloylpiperidin-3-yl)amino)methyl)-5-(2-methyl-4-phenoxyphenyl)-3H-1-thia-3,5,8-triazaacenaphthylen-4(5H)-one] |  |
| 7.2 | CNCC(=O)N1CC[C@@H](NC(=O)c2sc3nccc4c3c2NC(=O)N4c2ccc(Oc3ccccc3)cc2C)C1 [Example 391, (R)-5-(2-Methyl-4-phenoxyphenyl)-N-(1-(2-(methylamino)acetyl)pyrrolidin-3-yl)-4-oxo-4,5-dihydro-3H-1-thia-3,5,8-triazaacenaphthylene-2-carboxamide] |  |
